Assay results published in article PMC9267128, “New 2-[(4-Amino-6-N-substituted-1,3,5-triazin-2-yl)methylthio]-N-(imidazolidin-2-ylidene)-4-chloro-5-methylbenzenesulfonamide Derivatives, Design, Synthesis and Anticancer Evaluation” (International Journal of Molecular Sciences, 2022).

Legend:
[1] = system: HaCaT (human keratinocyte cell line); test: MTT cell viability assay, non-cancerous HaCaT; format: cell-based; conditions: Homo sapiens, HaCaT, 72 h, 72 h of incubation, non-cancerous keratinocytes
Outline: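 Cells in DMEM with 10% FBS, 3 × 10^3 per well, exposed to compounds at 1–100 µM for 72 h at 37 °C. MTT at 0.5 mg/mL for 2 h, formazan dissolved in DMSO and read at 550 nm. Mean ± SD of at least three independent experiments, each in triplicate.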

HCT-116 (colon cancer) = test: MTT cell viability assay, HCT-116; format: cell-based, human; conditions: for IC50: MTT assay, 72 h of incubation; for Selectivity Index (SI) HCT-116: IC50 value toward HaCaT cells/IC50 value toward HCT-116
Outline: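 HCT-116 and HeLa cells in DMEM/10% FBS exposed 72 h to compounds over 1–100 µM. Viability by MTT (0.5 mg/mL, 2 h, 37 °C), formazan dissolved in DMSO and read at 550 nm; mean ± SD of at least three independent experiments.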

MCF-7 cells [2] = test: Cell cycle analysis by flow cytometry (PI staining) in MCF-7 cells; format: cell-based, human; conditions: 48 h; for G0/G1 phase population of the cell cycle: MCF-7, 10 µM; for sub-G1 population of the cell cycle: MCF-7, 5, 10, 25 µM
Description: P53 controls cell proliferation through the regulation of the cell cycle. In order to determine p53-independent cell cycle arrest, the influence of selected compounds on the cell cycle distribution in MCF-7 cells was analyzed. Cells were treated with a concentration range of two selected compounds (140 and 48) for 48 h. Cell cycle distribution was analyzed with flow cytometry. […] Compound 140 at the lower concentration of 10 µM increased the G0/G1 population, whereas at the higher examined concentration of 25 µM, an increase in the G2/M phase of the cell cycle was observed.
Cell cycle distribution was analyzed with flow cytometry analysis with PI staining. MCF-7 cells were treated with compounds 48 and 140 (5, 10, 25 µM) for 48 h. Following treatment, the cells were collected and fixed in cold 70% ethanol for 24 h. The fixed cells were washed with PBS and incubated with 100 µg/mL RNAse (Invitrogen, Germany) and stained with 10 µg/mL PI (Invitrogen, Germany) for 30 min at RT. A total of 10^4 cells were examined with a FACSCalibur cytometer (BD) and data was analyzed with Flowing software (version 2.5).

[3] = system: A2780 (ovarian carcinoma cell line); test: MTT assay, wild-type p53 ovarian cancer cells A2780; format: cell-based; conditions: Homo sapiens, A2780, 72 h of incubation
Description: Thus, the ability of the selected compounds to exert cytotoxic activity toward cell lines harboring mutant p53 was examined. Compounds displaying a high selectivity index (Table 6) were selected for the analysis of their activity toward ovarian and breast cancer cells with wild-type p53 (A2780, MCF-7) and mutant p53 (SKOV-3, T47D).
Cell viability was examined using the MTT [3-(4,5-dimethylthiazol-2-yl)-2,5-diphenyltetrazolium bromide] assay. Cells were seeded in 96-well plates at a density of 3 × 10^3 cells/well and treated for 72 h with the tested compounds in the concentration range of 1–100 µM. Then, MTT (0.5 mg/mL) was added to the medium and cells were further incubated for 2 h at 37 °C. In the next stage, cells were lysed with DMSO and the absorbance of the formazan solution was measured at 550 nm with a plate reader (1420 multilabel counter, Victor, Jügesheim, Germany). The experiment was performed in triplicate. Values are expressed as the mean ± SD of at least three independent experiments. Cisplatin was used as a positive control.
Compounds 48, 62, 134, 138 and 140 were further examined toward MCF7 (breast cancer cell line, ATCC, HTB-22), T47D (breast cancer cell line, DSMZ ACC 739), A2780 (ovarian carcinoma cell line, ECACC, 93112519), and SKOV3 (ovarian carcinoma cell line, ATCC, HTB-77) cells. Cells were grown in Dulbecco’s Modified Eagle Medium (DMEM) supplemented with 10% fetal bovine serum (Thermo Fisher Scientific).

MCF-7 cells [4] = test: Apoptosis analysis (Annexin V-PE/7-AAD flow cytometry) in MCF-7 cells; format: cell-based, human; conditions: MCF-7, 5, 10 and 25 µM, 72 h
Description: To confirm this, MCF-7 cells were treated with a concentration range of compounds 140 and 48 for 72 h. Flow cytometric analysis was performed with Annexin V-PE staining. […] The increase in apoptotic cells was mainly evident in the late apoptotic stage (upper right quadrant) (Figure 9).
Levels of apoptosis were measured by flow cytometry using the Annexin V-PE Apoptosis Detection Kit I (BD Biosciences, Belgium) according to the manufacturer’s instructions. Apoptosis was assessed after a 72 h treatment of MCF7 and T47D cells with compounds 48 and 140 in the concentrations of 5, 10 and 25 µM. Proceeding cell treatment, cells were collected, washed with PBS and stained with Annexin V-phycoerythrin (PE) and 7-amino-actinomycin (7-AAD) in Annexin V binding buffer for 15 min at RT in the dark. After staining, cells were diluted in Annexin V binding buffer and analyzed on a BD FACSCalibur flow cytometer (BD Biosciences). At total of 10^4 cells were analyzed from each sample and data were analyzed with Flowing software (version 2.5).

Row | SMILES | IC50 [1] [µM] | IC50 (HCT-116 (colon cancer); Homo sapiens, HCT-116, 72 h) [µM] | Selectivity Index (SI) HCT-116 (HCT-116 (colon cancer)) | G0/G1 phase population of the cell cycle (MCF-7 cells [2]) | sub-G1 population of the cell cycle (MCF-7 cells [2]) | IC50 [3] [µM] | apoptotic population of cells (Annexin V-PE) (MCF-7 cells [4]) | IC50 (HCT-116 (colon cancer)) [µM] | G2/M phase population of the cell cycle (MCF-7 cells [2]; MCF-7, 25 µM)
1 | Cc1cc(S(=O)(=O)N=C2NCCN2Cc2ccccc2)c(SCc2nc(N)nc(N3CCc4ccccc43)n2)cc1Cl [Compound 48] | 33 ± 1 | 6 ± 0.1 | 5.5 | significant increase | concentration-dependent increase | 4 ± 0.1 | concentration-dependent increase | – | –
2 | Cc1cc(S(=O)(=O)N=C2NCCN2Cc2ccc(C(F)(F)F)cc2)c(SCc2nc(N)nc(N3CCN(Cc4ccccc4)CC3)n2)cc1Cl [Compound 140] | 22 ± 1 | < 6 | 4.4 | increased | concentration-dependent increase | 4.5 ± 0.1 | concentration-dependent increase | 5 ± 0.2 | increase
